Assay results: patent US6875843B2, “Prevention of diabetes and prolongation of the honeymoon phase of diabetes by administration of GnRH antagonists” (Children's Mercy Hospital, priority 2001, dated 2005)

Assays:
Type in all cases: in vivo, mouse
[1] = system: NOD mice; test: Serum prolactin by radioimmunoassay in NOD mice; settings: 100 μg s.c. six times weekly
Text: (§1) Injections. GnRH (native decapeptide) was purchased from Bachem (Bubendorf, Switzerland). GnRH antagonist Antide (Acetyl-β-[2-Naphthyl]-D-Ala-D-p-Chloro-Phe-β-[3-Pyridyl]-D-Ala-Ser-Nε-[Nicotinoyl]-Lys-Nε-[Nicotinoyl]-D-Lys-Leu-Nε-[Isopropyl]-Lys-Pro-D-Ala-NH2) was supplied by Contraceptive Development Branch (NICHHD) of the National Institutes of Health and Ares-Serono (Randolph, Mass.). A second GnRH antagonist, Nal-Glu (acetyl-D2Nal1, D4CIPhe2, D3Pal3, Arg5, Dglu6 (AA), DAla10) was supplied by NICHHD and was used on a subset of mice. All references to GnRH agonist refer to the native decapeptide. Animals were injected subcutaneously in the nape of the neck six times weekly, in the a.m., with 100 μg of GnRH or GnRH antagonist in 100 μl of vehicle consisting of 50% propylene glycol and 50% double distilled water.
Sera. Sera were collected from blood obtained every six weeks by retroorbital puncture after light isofluorane anesthesia.
Hormone measurements. Serum testosterone concentrations were measured by RIA using a commercial kit (Coat-A-Count, Diagnostic Products Corporation, Los Angeles, Calif.). Serum LH and prolactin were measured by radioimmunoassay (RIA) using previously described methods. […]

[2] = system: NOD mice; test: Serum total immunoglobulin G in gonadectomized NOD mice (single radial immunodiffusion); settings: 100 μg s.c. six times weekly, 8 weeks of treatment, vs vehicle (FIG. 3)
Text: (§2) Mice. The well-characterized NOD mice were used throughout the study. Male and female mice were purchased from the Jackson Laboratory (Bar Harbor, Me.). These mice are art-recognized animal models used in diabetes research. (Makino et al., (1980) Breeding of a Non-obese Diabetic Strain of Mice. Exp Anim, 29, 1-13; Miyazaki, A. T., et al, (1985) Predominance of T Lymphocytes in Pancreatic Islets and Spleen in Prediabetic Non-Obese Diabetic (Nod) Mice: a Longitudinal Study. Clin Exp immunol, 60, 622-630)
Experimental Design. Both intact and gonadectomized mice (GDX) were used. […] To compare the effects of GnRH agonists and antagonists, gonadectomized animals were randomized at 14 to 18 days of age and begun immediately in one of the following main treatment groups: GnRH agonist; Antide; vehicle. One group of gonadectomized males was treated with Nal-Glu, as an additional control. […]
Clinical tests. Total immunoglobulin G concentrations were measured by single radial immunodiffusion assay using immunodiffusion plates containing monospecific antiserum for IgG (ICN Biomedicals, Inc., Costa Mesa, Calif. ). […] Glycosuria was scored by comparison to reference standards on a scale of 0 to 4 as follows: negative=0; 30 mg/dL=1; 100 mg/dL=2; 300 mg/dL=3;>1000 mg/dL=4.
Statistics. […] Percentages of mice remaining diabetes-free was assessed by Mantel-Haenszel methodology. […]

[3] = system: NOD mice; test: Incidence and onset of diabetes in gonadectomized male NOD mice; settings: for Timing of onset of diabetes: gonadectomized NOD mice; for Timing of onset of diabetes / Incidence of diabetes: 100 μg s.c. six times weekly (FIG. 4)
Text: as §2
Experimental Design. Both intact and gonadectomized mice (GDX) were used. […] To compare the effects of GnRH agonists and antagonists, gonadectomized animals were randomized at 14 to 18 days of age and begun immediately in one of the following main treatment groups: GnRH agonist; Antide; vehicle. One group of gonadectomized males was treated with Nal-Glu, as an additional control.
(§3) Gonadectomy. Males were gonadectomized via a single scrotal incision under pentobarbital anesthesia.
as §1
Clinical tests. Total immunoglobulin G concentrations were measured by single radial immunodiffusion assay using immunodiffusion plates containing monospecific antiserum for IgG (ICN Biomedicals, Inc., Costa Mesa, Calif. ). Serum glucoses were checked weekly using a One Touch Fast Take meter (Lifescan, Milpitas, Calif.) Urine was tested for glucose by urinalysis reagent strips (Miles, Inc., Elkhart Ind.). Glycosuria was scored by comparison to reference standards on a scale of 0 to 4 as follows: negative=0; 30 mg/dL=1; 100 mg/dL=2; 300 mg/dL=3;>1000 mg/dL=4.
Statistics. Serum immunoglobulin measurements were compared by two-tailed Student's paired t-tests. Percentages of mice remaining diabetes-free was assessed by Mantel-Haenszel methodology. (Mantel, N. (1966) Evaluation of Survival Data and Two New Rank Order Statistics Arising in its Consideration. Cancer Chemother Rep, 50, 163-70)

[4] = system: NOD mice; test: Lymphocytic infiltration of islet cells, pancreatic histology in gonadectomized NOD mice; settings: 100 μg s.c. six times weekly, 3, 5, 7, 9 and 11 weeks, vs vehicle (FIG. 5)
Experimental: In this example, gonadectomized NOD mice were treated with either the GnRH antagonist Antide or the vehicle (50% propylene glycol and 50% double distilled water) to determine differences in the rate of lymphocytic infiltration of islet cells.
Mice. The well-characterized NOD mice were used throughout the study. Male and female mice were purchased from the Jackson Laboratory (Bar Harbor, Me.). Again, these mice are art-recognized animal models used in diabetes research.
as §3
Injections. The mice were injected subcutaneously in the nape of the neck six times weekly, in the a.m., with 100 μg of the GnRH antagonist in 100 μl of vehicle consisting of 50% propylene glycol and 50% double distilled water.
Pancreatic Histology. Three mice per treatment group were euthanized at 3, 5, 7, 9, and 11 weeks. Pancreatic histologic sections were stained by hemotoxillin and eosin. Ten tissue sections per treatment group were examined. All […] in each tissue section were scored with regard to the presence or absence of lymphocytic infiltrates.

Substance | Serum prolactin levels [1] | Serum IgG concentrations [2] | Timing of onset of diabetes [3] | Incidence of diabetes ([3]; gonadectomized male NOD mice) | Percentage of treated mice diabetic ([3]; gonadectomized male NOD mice, 100 μg s.c. six times weekly, at 60 weeks of age, compared to vehicle (FIG. 4)) [%] | Lymphocytic infiltration of islets (percentages of islets infiltrated) [4]
Acetyl-β-[2-Naphthyl]-D-Ala-D-p-Chloro-Phe-β-[3-Pyridyl]-D-Ala-Ser-Nε-[Nicotinoyl]-Lys-Nε-[Nicotinoyl]-D-Lys-Leu-Nε-[Isopropyl]-Lys-Pro-D-Ala-NH2 [Antide] | neither agonist nor antagonist treatment altered serum prolactin levels | reduced serum IgG concentrations to levels seen in sham operated mice | delayed onset of diabetes | significantly decreased | 0 | statistically significant reduction in lymphocytic infiltration
GnRH agonist: GnRH native decapeptide purchased from Bachem; all references to GnRH agonist refer to the native decapeptide (QHWSYGLRPG; Gonadoliberin-1; UniProt P01148 24-33, looked up) | neither agonist nor antagonist treatment altered serum prolactin levels | further increased IgG levels compared to vehicle | accelerated | significantly increased | – | –
